Results from paper PMC8742467, “Therapeutical interference with the epigenetic landscape of germ cell tumors: a comparative drug study and new mechanistical insights” (Clinical Epigenetics, 2022).
pEC50: −log10 of the molar value.

Legend:
Assay type in all cases: cell-based, Human
CC (JAR) = experiment: Flow cytometry apoptosis (Annexin V/PI), CC; settings: EC50, 16 h
Description: (§1) For Annexin V/PI staining, cells were washed with Annexin V Binding Buffer before being resuspended in 70 µl Annexin V Binding Buffer and 2.5 μl Annexin V FITC-conjugate (both Miltenyi Biotec, Bergisch Gladbach, Germany) and 15 µg PI (Sigma-Aldrich, Taufkirchen, Germany) and incubated in the dark at room temperature for 15 min. 500 µl of Annexin V Binding Buffer was added before measurement. For the cell cycle analysis, cells were washed with PBS (phosphate buffered saline), fixed by ice cold 70% ethanol and stained with 2 µg/ml PI and 200 µg/ml RNaseA (Quiagen, Hilden, Germany 100 mg/ml) in PBS shortly before every measurement. At least 5 × 10^4 cells were counted and analyzed using the MACSQuant software v 2.13.0.

GCT cells = experiment: Flow cytometry cell cycle (PI), GCT cells; settings: EC50, 16 h
Description: as §1

fibroblast control cells = experiment: Flow cytometry apoptosis (Annexin V/PI), fibroblasts; settings: EC50, 16 h
Description: as §1

GCT cell lines = experiment: XTT cell viability assay, GCT cell lines (pre-screen / summary); settings: first pre-screen, XTT; read-out: EC50
Description: The […] (XTT) assays were performed as described previously. In summary, for GCT and fibroblast cell lines 5 × 10^3 cells (3 × 10^3 for UC, PCa and RCC cell lines) per 96-well were seeded and different drug concentrations (see Additional file 2: Fig. S2, Additional file 3: Fig. S3) or corresponding solvents were added to the cells the following day. For drug details see Additional file 12: Table S2 C. Each condition was analyzed in four technical replicates and EC50 values were calculated by GraphPad Prism v8.

YST (GCT72) = experiment: Flow cytometry apoptosis (Annexin V/PI), YST; settings: EC50, 16 h
Description: as §1

Cc1ccc(-n2sc3ccccc3c2=O)cc1 [PBIT]
apoptosis induction in JAR (CC (JAR)): negligible
cell cycle phase accumulation in GCT cells (GCT cells): accumulated in the G0/G1 phase
apoptosis induction in fibroblast control cells (fibroblast control cells): only a weak apoptosis induction
pEC50 (GCT cell lines): ≥ 4.30
apoptosis induction in GCT72 (YST (GCT72)): negligible
